# Test results taken from ChEMBL document CHEMBL5050844 (2019).
# Assays:
# [1] = target: E3 ubiquitin-protein ligase CBL-B (Homo sapiens, UniProt Q13191); assay: Inhibition of N-terminal Avi-tagged human CBL-B (36 to 427 residues) incubated with 60 nM Src kinase for 1.5 hrs followed by incubation with fluorescently labeled UbcH5B-Ub for 1 hr and measured by TR-FRET assay; format: single protein
# [2] = Induction of anti-CD3/CD28 antibodies-stimulated human T cell activation at 4 uM assessed fold increase in IL-2 secretion measured by ELISA assay; format: functional, T cell line
# [3] = Induction of anti-CD3/CD28 antibodies-stimulated human T cell activation at 1 uM assessed fold increase in IL-2 secretion measured by ELISA assay; format: functional, T cell line
# [4] = Induction of anti-CD3/CD28 antibodies-stimulated human T cell activation at 0.3 uM assessed fold increase in IL-2 secretion measured by ELISA assay; format: functional, T cell line
# [5] = Induction of anti-CD3 antibodies-stimulated human T cell activation at 8 uM assessed fold increase in IL-2 secretion measured by ELISA assay; format: functional, T cell line; also: reference of the scale not given here
# [6] = Induction of anti-CD3 antibodies-stimulated human T cell activation at 1 uM assessed fold increase in IL-2 secretion measured by ELISA assay; format: functional, T cell line; also: reference of the scale not given here
# [7] = Induction of anti-CD3/CD28 antibodies-stimulated human T cell activation at 4 uM assessed fold increase in CD25 expression measured by ELISA assay; format: functional, T cell line
# [8] = Induction of anti-CD3/CD28 antibodies-stimulated human T cell activation at 1 uM assessed fold increase in CD25 expression measured by ELISA assay; format: functional, T cell line
# [9] = Induction of anti-CD3/CD28 antibodies-stimulated human T cell activation at 0.3 uM assessed fold increase in CD25 expression measured by ELISA assay; format: functional, T cell line
# [10] = Induction of anti-CD3 antibodies-stimulated human T cell activation at 8 uM assessed fold increase in CD25 expression measured by ELISA assay; format: functional, T cell line; also: reference of the scale not given here
# [11] = Induction of anti-CD3 antibodies-stimulated human T cell activation at 1 uM assessed fold increase in CD25 expression measured by ELISA assay; format: functional, T cell line; also: reference of the scale not given here
# E3 ubiquitin-protein ligase CBL-B, sequence (Q13191 whole entry, the tested form may be a part): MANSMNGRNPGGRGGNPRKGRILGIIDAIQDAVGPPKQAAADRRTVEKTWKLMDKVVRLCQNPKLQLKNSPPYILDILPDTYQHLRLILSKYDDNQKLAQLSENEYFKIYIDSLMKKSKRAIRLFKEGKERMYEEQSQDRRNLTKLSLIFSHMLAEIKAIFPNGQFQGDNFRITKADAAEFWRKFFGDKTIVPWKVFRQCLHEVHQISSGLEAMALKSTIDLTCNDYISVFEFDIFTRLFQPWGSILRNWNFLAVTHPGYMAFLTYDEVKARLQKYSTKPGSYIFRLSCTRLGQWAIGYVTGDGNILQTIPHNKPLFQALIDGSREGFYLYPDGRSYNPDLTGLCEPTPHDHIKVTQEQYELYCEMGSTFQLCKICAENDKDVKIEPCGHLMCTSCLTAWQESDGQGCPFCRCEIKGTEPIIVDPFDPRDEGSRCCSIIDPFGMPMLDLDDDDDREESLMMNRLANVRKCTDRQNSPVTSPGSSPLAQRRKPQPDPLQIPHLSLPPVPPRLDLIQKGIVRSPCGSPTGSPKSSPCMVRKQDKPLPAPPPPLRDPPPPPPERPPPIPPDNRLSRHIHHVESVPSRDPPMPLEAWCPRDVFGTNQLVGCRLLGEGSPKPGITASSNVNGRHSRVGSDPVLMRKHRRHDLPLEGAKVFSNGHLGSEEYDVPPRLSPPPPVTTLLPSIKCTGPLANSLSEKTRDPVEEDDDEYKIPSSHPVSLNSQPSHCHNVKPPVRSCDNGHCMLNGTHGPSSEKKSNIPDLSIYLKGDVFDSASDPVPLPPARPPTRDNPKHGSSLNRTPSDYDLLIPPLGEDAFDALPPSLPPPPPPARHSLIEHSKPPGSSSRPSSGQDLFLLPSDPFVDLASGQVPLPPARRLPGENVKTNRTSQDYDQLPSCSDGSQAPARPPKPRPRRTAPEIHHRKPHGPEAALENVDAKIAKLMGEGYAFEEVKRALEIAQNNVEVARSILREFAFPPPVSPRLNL
structure (smiles),measurement,setting,value
Cn1cnnc1CC1(c2cccc(NC(=O)c3cc(C4CC4)nc(C(F)(F)F)n3)c2)COC1,IC50,[1],< 100 nM
same,fold change (FC),[2],>=7.5
same,fold change (FC),[3],>=7.5
same,fold change (FC),[4],2.51
same,fold change (FC),[5],>=0.201
same,fold change (FC),[6],0.151
same,fold change (FC),[7],1.51
same,fold change (FC),[8],1.31
same,fold change (FC),[9],1.01
same,fold change (FC),[10],>=1.001
same,fold change (FC),[11],0.801
C[C@H](c1cc2c(c(C(F)(F)F)c1)CN(c1cccc(C3(Cc4nncn4C)COC3)c1)C2=O)N1CCC(F)(F)C1,IC50,[1],< 100 nM
same,fold change (FC),[2],>=7.5
same,fold change (FC),[3],>=7.5
same,fold change (FC),[4],2.51
same,fold change (FC),[5],>=0.201
same,fold change (FC),[6],0.151
same,fold change (FC),[7],1.31
same,fold change (FC),[8],1.31
same,fold change (FC),[9],1.01
same,fold change (FC),[10],>=1.001
same,fold change (FC),[11],>=1.001
Cc1ccc(C(=O)Nc2cccc([C@H](C)Sc3nncn3C)c2)nc1C1CC1,IC50,[1],< 100 nM
same,fold change (FC),[2],>=7.5
same,fold change (FC),[3],2.51
same,fold change (FC),[4],1.01
same,fold change (FC),[5],0.151
same,fold change (FC),[6],<=0.05
same,fold change (FC),[7],1.01
same,fold change (FC),[8],1.01
same,fold change (FC),[9],1.01
same,fold change (FC),[10],0.801
same,fold change (FC),[11],0.601
C[C@H](Sc1nncn1C)c1cccc(NC(=O)c2ccc(C#N)c(C3CC3)n2)c1,IC50,[1],< 100 nM
same,fold change (FC),[2],5
same,fold change (FC),[3],2.51
same,fold change (FC),[4],1.01
same,fold change (FC),[5],0.101
same,fold change (FC),[6],<=0.05
same,fold change (FC),[7],1.31
same,fold change (FC),[8],1.31
same,fold change (FC),[9],1.01
same,fold change (FC),[10],>=1.001
same,fold change (FC),[11],0.601
Cn1cnnc1CC1(c2cccc(N3Cc4c(cc(CN5C[C@@H](F)[C@@H](F)C5)cc4C(F)(F)F)C3=O)c2)COC1,IC50,[1],< 100 nM
same,fold change (FC),[2],>=7.5
same,fold change (FC),[3],>=7.5
same,fold change (FC),[4],>=7.5
same,fold change (FC),[5],>=0.201
same,fold change (FC),[6],0.151
same,fold change (FC),[7],1.51
same,fold change (FC),[8],1.31
same,fold change (FC),[9],1.31
same,fold change (FC),[10],>=1.001
same,fold change (FC),[11],0.801
C[C@@H](c1cc2c(c(C(F)(F)F)c1)CN(c1cccc([C@@](C)(F)C(F)(F)c3nncn3C)c1)C2=O)N1CC[C@H](F)C1,IC50,[1],< 100 nM
same,fold change (FC),[2],>=7.5
same,fold change (FC),[3],>=7.5
same,fold change (FC),[4],>=7.5
same,fold change (FC),[5],>=0.201
same,fold change (FC),[6],>=0.201
same,fold change (FC),[7],1.51
same,fold change (FC),[8],1.51
same,fold change (FC),[9],1.31
same,fold change (FC),[10],>=1.001
same,fold change (FC),[11],>=1.001
Cc1cc(C(=O)Nc2cccc([C@H](C)Cc3nocc3C)c2)nc(C2CC2)n1,IC50,[1],< 100 nM
same,fold change (FC),[2],5
same,fold change (FC),[3],2.51
same,fold change (FC),[4],1.01
same,fold change (FC),[5],>=0.201
same,fold change (FC),[6],0.051
same,fold change (FC),[7],1.01
same,fold change (FC),[8],1.01
same,fold change (FC),[9],1.01
same,fold change (FC),[10],>=1.001
same,fold change (FC),[11],0.801
Cn1cnnc1CC1(c2cccc(N3Cc4c(cccc4C(F)(F)F)C3=O)c2)CC1,IC50,[1],< 100 nM
same,fold change (FC),[2],5
same,fold change (FC),[3],2.51
same,fold change (FC),[4],2.51
same,fold change (FC),[5],>=0.201
same,fold change (FC),[6],0.051
same,fold change (FC),[7],1.01
same,fold change (FC),[8],1.01
same,fold change (FC),[9],<=1
same,fold change (FC),[10],>=1.001
same,fold change (FC),[11],>=1.001
CC(=O)N1CCN(c2ccc3cnc(C(=O)Nc4cccc([C@H](C)Cc5nncn5C)c4)cc3c2)CC1.O=C(O)C(F)(F)F,IC50,[1],< 100 nM
same,fold change (FC),[2],>=7.5
same,fold change (FC),[3],5
same,fold change (FC),[4],2.51
same,fold change (FC),[5],>=0.201
same,fold change (FC),[6],>=0.201
same,fold change (FC),[7],1.51
same,fold change (FC),[8],1.01
same,fold change (FC),[9],1.01
same,fold change (FC),[10],>=1.001
same,fold change (FC),[11],0.601
"Cn1cnnc1[C@H](F)C(C)(F)c1cccc(N2Cc3c(cccc3C(F)(F)F)C2=O)c1 (single isomer, unassigned)",IC50,[1],< 100 nM
same,fold change (FC),[2],1.01
same,fold change (FC),[3],1.01
same,fold change (FC),[4],1.01
same,fold change (FC),[5],0.101
same,fold change (FC),[6],<=0.05
same,fold change (FC),[7],1.01
same,fold change (FC),[8],1.01
same,fold change (FC),[9],1.01
same,fold change (FC),[10],0.801
same,fold change (FC),[11],0.601
C[C@H]1C=CCN1Cc1cc2c(c(C(F)(F)F)c1)CN(c1cccc(C3(Cc4nncn4C)COC3)c1)C2=O,IC50,[1],< 100 nM
same,fold change (FC),[2],>=7.5
same,fold change (FC),[3],>=7.5
same,fold change (FC),[4],>=7.5
same,fold change (FC),[5],>=0.201
same,fold change (FC),[6],>=0.201
same,fold change (FC),[7],1.51
same,fold change (FC),[8],1.51
same,fold change (FC),[9],1.31
same,fold change (FC),[10],>=1.001
same,fold change (FC),[11],>=1.001
Cn1cnnc1CC1(c2cccc(N3Cc4c(cc(CN5CC(C#N)C5)cc4C(F)(F)F)C3=O)c2)COC1,IC50,[1],< 100 nM
same,fold change (FC),[2],>=7.5
same,fold change (FC),[3],5
same,fold change (FC),[4],2.51
same,fold change (FC),[5],>=0.201
same,fold change (FC),[6],0.151
same,fold change (FC),[7],1.31
same,fold change (FC),[8],1.01
same,fold change (FC),[9],1.01
same,fold change (FC),[10],>=1.001
same,fold change (FC),[11],0.801
COc1ccc(C(=O)Nc2cccc([C@H](C)Sc3nncn3C)c2)nc1C1CC1,IC50,[1],< 100 nM
same,fold change (FC),[2],2.51
same,fold change (FC),[3],1.01
same,fold change (FC),[4],1.01
same,fold change (FC),[5],0.101
same,fold change (FC),[6],<=0.05
same,fold change (FC),[7],1.01
same,fold change (FC),[8],1.01
same,fold change (FC),[9],1.01
same,fold change (FC),[10],>=1.001
same,fold change (FC),[11],0.601
C[C@H](c1cc2c(c(C(F)(F)F)c1)CN(c1cccc([C@@](C)(F)C(F)(F)c3nncn3C)c1)C2=O)N1CC[C@H](F)C1,IC50,[1],< 100 nM
same,fold change (FC),[2],>=7.5
same,fold change (FC),[3],>=7.5
same,fold change (FC),[4],2.51
same,fold change (FC),[5],>=0.201
same,fold change (FC),[6],>=0.201
same,fold change (FC),[7],1.51
same,fold change (FC),[8],1.31
same,fold change (FC),[9],1.01
same,fold change (FC),[10],>=1.001
same,fold change (FC),[11],>=1.001
Cn1cnnc1CC1(c2cccc(NC(=O)c3cc(C4CC4)nc(C4CC4)n3)c2)COC1,IC50,[1],< 100 nM
same,fold change (FC),[2],>=7.5
same,fold change (FC),[3],>=7.5
same,fold change (FC),[4],2.51
same,fold change (FC),[5],>=0.201
same,fold change (FC),[6],0.151
same,fold change (FC),[7],1.31
same,fold change (FC),[8],1.01
same,fold change (FC),[9],1.01
same,fold change (FC),[10],>=1.001
same,fold change (FC),[11],>=1.001
